Source: patent publication US20240002391A1, “4-ALKOXYPYRROLO[2,1-F][1,2,4]TRIAZINES AND PREPARATION AND USES THEREOF” (BioSplice Therapeutics, Inc., priority 2022, published 2024)

Molecular target: recombinant DYRK1A kinase (Homo sapiens (Human), UniProt Q13627)
Test: DYRK1A kinase assay (Ser/Thr 18 peptide Z-lyte FRET)
Format: biochemical
Details: DYRK1A kinase activity, Z-lyte Ser/Thr 18 peptide, 15 μM ATP; method text calls the value IC50; read-out: EC50 (the source's name)
Protocol: Representative compounds were screened using the assay procedure for DYRK1A kinase activity as described below.
Each compound was dissolved in DMSO as a 10 mM stock and used to prepare compound source plates. Serial dilution (1:3, 11-point dose-response curves from 10 μM to 0.00016 μM) and compound transfer was performed using the ECHO 550 (Labcyte, Sunnyvale, CA) into 1536-well black-walled round bottom plates (Coming).
The DYRK1A kinase assay was run using the Ser/Thr 18 peptide Z-lyte assay kit according to manufacturer's instructions (Life Technologies-a Division of Thermo-Fisher). This is a non-radioactive assay using fluorescence resonance energy transfer (FRET) between coumarin and fluorescein to detect kinase activity which is represented as a ratio of coumarin emission/fluorescein emission.
Briefly, recombinant DYRK1A kinase, ATP and Ser/Thr peptide 18 were prepared in 1X Kinase buffer to final concentrations of 0.25 μg/mL, 15 μM, and 4 μM respectively. The mixture was allowed to incubate with the representative compounds for one hour at room temperature. All reactions were performed in duplicate. Unphosphorylated (“0% Control”) and phosphorylated (“100% control”) forms of Ser/Thr 18 served as control reactions. Additionally, an 11-point dose-response curve of Staurosporine (luM top) was run to serve as a positive compound control.
After incubation, Development Reagent A was diluted in Development Buffer then added to the reaction and allowed to further incubate for one hour at room temperature. The plate was read at Ex 400 Em 455 to detect the coumarin signal and Ex 400 Em 520 to measure the signal (EnVision Multilabel Plate Reader, PerkinElmer).
The Emission ratio (Em) was calculated as a ratio of the coumarin (C) emission signal (at 445 nm)/Fluorescein (F) emission signal (at 520 nm). The percent phosphorylation was then calculated using the following formula: [1−((Em ratio X F100%)-C100%)/((C0%-C100%) +(Em ratio X (F100%−F0%)))]. Dose-response curves were generated, and inhibitory concentration (IC50) values were calculated using non-linear regression curve fit in the Dotmatics' Studies Software (Bishops Stortford, UK).

IC50	SMILES
1.1 nM	COc1nc(N[C@H]2CC[C@@](C)(O)CC2)nn2ccc(-c3cnc4nccn4c3)c12 [Compound 4, cis-4-((5-(Imidazo[1,2-a]pyrimidin-6-yl)-4-methoxypyrrolo[2,1-f][1,2,4]triazin-2-yl)amino)-1-methylcyclohexan-1-ol]
4.6 nM	COc1nc(N[C@H]2C[C@@](C)(O)C2)nn2ccc(-c3ccn4nccc4c3)c12 [Compound 7, cis-3-((4-Methoxy-5-(pyrazolo[1,5-a]pyridin-5-yl)pyrrolo[2,1-f][1,2,4]triazin-2-yl)amino)-1-methylcyclobutan-1-ol]
0.6 nM	COc1nc(N[C@H]2C[C@](C)(O)C2)nn2ccc(-c3ccn4nccc4c3)c12 [Compound 8, trans-3-((4-Methoxy-5-(pyrazolo[1,5-a]pyridin-5-yl)pyrrolo[2,1-f][1,2,4]triazin-2-yl)amino)-1-methylcyclobutan-1-ol]
9960 nM	COc1nc(N[C@H]2CC[C@@H](OC)CC2)nn2ccc(-c3ccn4nccc4c3)c12 [Compound 9, 4-Methoxy-N-(cis-4-methoxycyclohexyl)-5-(pyrazolo[1,5-a]pyridin-5-yl)pyrrolo[2,1-f][1,2,4]triazin-2-amine]
93.8 nM	COc1nc(N[C@H]2CC[C@H](OC)CC2)nn2ccc(-c3ccn4nccc4c3)c12 [Compound 10, 4-Methoxy-N-(trans-4-methoxycyclohexyl)-5-(pyrazolo[1,5-a]pyridin-5-yl)pyrrolo[2,1-f][1,2,4]triazin-2-amine]
5.5 nM	COc1nc(N[C@H]2CC[C@@H](OCCO)CC2)nn2ccc(-c3ccn4nccc4c3)c12 [Compound 13, 2-((cis-4-((4-Methoxy-5-(pyrazolo[1,5-a]pyridin-5-yl)pyrrolo[2,1-f][1,2,4]triazin-2-yl)amino)cyclohexyl)oxy)ethan-1-ol]
33.7 nM	COCCO[C@H]1CC[C@@H](Nc2nc(OC)c3c(-c4ccn5nccc5c4)ccn3n2)CC1 [Compound 15, 4-Methoxy-N-(cis-4-(2-methoxyethoxy)cyclohexyl)-5-(pyrazolo[1,5-a]pyridin-5-yl)pyrrolo[2,1-f][1,2,4]triazin-2-amine]
34.4 nM	COCCO[C@H]1CC[C@H](Nc2nc(OC)c3c(-c4ccn5nccc5c4)ccn3n2)CC1 [Compound 16, 4-Methoxy-N-(trans-4-(2-methoxyethoxy)cyclohexyl)-5-(pyrazolo[1,5-a]pyridin-5-yl)pyrrolo[2,1-f][1,2,4]triazin-2-amine]
17.5 nM	COc1nc(N[C@H]2CC[C@@H](NC(C)=O)CC2)nn2ccc(-c3ccn4nccc4c3)c12 [Compound 17, N-(cis-4-((4-methoxy-5-(pyrazolo[1,5-a]pyridin-5-yl)pyrrolo[2,1-f][1,2,4]triazin-2-yl)amino)cyclohexyl)acetamide]
7.4 nM	COc1nc(N[C@H]2CC[C@H](NC(C)=O)CC2)nn2ccc(-c3ccn4nccc4c3)c12 [Compound 18, N-(trans-4-((4-Methoxy-5-(pyrazolo[1,5-a]pyridin-5-yl)pyrrolo[2,1-f][1,2,4]triazin-2-yl)amino)cyclohexyl)acetamide]
14.1 nM	COc1nc(N[C@H]2CC[C@@](C)(O)CC2)nn2ccc(-c3ccn4nccc4c3)c12 [Compound 19, cis-4-((4-Methoxy-5-(pyrazolo[1,5-a]pyridin-5-yl)pyrrolo[2,1-f][1,2,4]triazin-2-yl)amino)-1-methylcyclohexan-1-ol]
14.3 nM	COc1nc(NC2CCN(CCF)CC2)nn2ccc(-c3ccn4nccc4c3)c12 [Compound 24, N-(1-(2-Fluoroethyl)piperidin-4-yl)-4-methoxy-5-(pyrazolo[1,5-a]pyridin-5-yl)pyrrolo[2,1-f][1,2,4]triazin-2-amine]
7.1 nM	COc1nc(NC2CCN(C3COC3)CC2)nn2ccc(-c3ccn4nccc4c3)c12 [Compound 26, 4-Methoxy-N-(1-(oxetan-3-yl)piperidin-4-yl)-5-(pyrazolo[1,5-a]pyridin-5-yl)pyrrolo[2,1-f][1,2,4]triazin-2-amine]
9960 nM	COc1nc(NC2CCN(C(C)=O)CC2)nn2ccc(-c3ccn4nccc4c3)c12 [Compound 27, 1-(4-((4-Methoxy-5-(pyrazolo[1,5-a]pyridin-5-yl)pyrrolo[2,1-f][1,2,4]triazin-2-yl)amino)piperidin-1-yl)ethan-1-one]
9.2 nM	COc1nc(N[C@@H]2CCNC[C@@H]2F)nn2ccc(-c3ccn4nccc4c3)c12 [Compound 29]
22.1 nM	COc1nc(N[C@H]2CCNC[C@H]2F)nn2ccc(-c3ccn4nccc4c3)c12 [Compound 30, N-((3R,4S)-3-Fluoropiperidin-4-yl)-4-methoxy-5-(pyrazolo[1,5-a]pyridin-5-yl)pyrrolo[2,1-f][1,2,4]triazin-2-amine]
7.7 nM	COc1nc(N[C@@H]2CCN(C)C[C@@H]2F)nn2ccc(-c3ccn4nccc4c3)c12 [Compound 31, N-((3S,4R)-3-fluoro-1-methylpiperidin-4-yl)-4-methoxy-5-(pyrazolo[1,5-a]pyridin-5-yl)pyrrolo[2,1-f][1,2,4]triazin-2-amine]
6.2 nM	COc1nc(N[C@H]2CCN(C)C[C@H]2F)nn2ccc(-c3ccn4nccc4c3)c12 [Compound 34, N-((3R,4S)-3-Fluoro-1-methylpiperidin-4-yl)-4-methoxy-5-(pyrazolo[1,5-a]pyridin-5-yl)pyrrolo[2,1-f][1,2,4]triazin-2-amine]
12.1 nM	COc1nc(NC2CCOCC2)nn2ccc(-c3ccn4nccc4c3)c12 [Compound 36, 4-Methoxy-5-(pyrazolo[1,5-a]pyridin-5-yl)-N-(tetrahydro-2H-pyran-4-yl)pyrrolo[2,1-f][1,2,4]triazin-2-amine]
2.5 nM	COc1nc(NC2CC3(C2)CN(C(C)=O)C3)nn2ccc(-c3ccn4nccc4c3)c12 [Compound 37, 1-(6-((4-Methoxy-5-(pyrazolo[1,5-a]pyridin-5-yl)pyrrolo[2,1-f][1,2,4]triazin-2-yl)amino)-2-azaspiro[3.3]heptan-2-yl)ethan-1-one]
2.9 nM	COc1nc(NC2CC3(CCN(C(C)=O)CC3)C2)nn2ccc(-c3ccn4nccc4c3)c12 [Compound 39, 1-(2-((4-Methoxy-5-(pyrazolo[1,5-a]pyridin-5-yl)pyrrolo[2,1-f][1,2,4]triazin-2-yl)amino)-7-azaspiro[3.5]nonan-7-yl)ethan-1-one]
1.6 nM	COc1nc(NC2CCC3(CC2)CN(C(C)=O)C3)nn2ccc(-c3ccn4nccc4c3)c12 [Compound 40, 1-(7-((4-Methoxy-5-(pyrazolo[1,5-a]pyridin-5-yl)pyrrolo[2,1-f][1,2,4]triazin-2-yl)amino)-2-azaspiro[3.5]nonan-2-yl)ethan-1-one]
9.3 nM	COc1nc(N[C@H]2CC[C@@H](OC)CC2)nn2ccc(-c3ccc4nccn4c3)c12 [Compound 45, 5-(Imidazo[1,2-a]pyridin-6-yl)-4-methoxy-N-(cis-4-methoxycyclohexyl)pyrrolo[2,1-f][1,2,4]triazin-2-amine]
2.6 nM	COc1nc(N[C@H]2CC[C@@H](OCCO)CC2)nn2ccc(-c3ccc4nccn4c3)c12 [Compound 49, 2-((cis-4-((5-(Imidazo[1,2-a]pyridin-6-yl)-4-methoxypyrrolo[2,1-f][1,2,4]triazin-2-yl)amino)cyclohexyl)oxy)ethan-1-ol]
6.7 nM	COCCO[C@H]1CC[C@@H](Nc2nc(OC)c3c(-c4ccc5nccn5c4)ccn3n2)CC1 [Compound 51, 5-(Imidazo[1,2-a]pyridin-6-yl)-4-methoxy-N-(cis-4-(2-methoxyethoxy)cyclohexyl)pyrrolo[2,1-f][1,2,4]triazin-2-amine]
5.2 nM	COCCO[C@H]1CC[C@H](Nc2nc(OC)c3c(-c4ccc5nccn5c4)ccn3n2)CC1 [Compound 52, 5-(Imidazo[1,2-a]pyridin-6-yl)-4-methoxy-N-(trans-4-(2-methoxyethoxy)cyclohexyl)pyrrolo[2,1-f][1,2,4]triazin-2-amine]
0.7 nM	COc1nc(N[C@H]2CC[C@@H](NC(C)=O)CC2)nn2ccc(-c3ccc4nccn4c3)c12 [Compound 53, N-(cis-4-((5-(Imidazo[1,2-a]pyridin-6-yl)-4-methoxypyrrolo[2,1-f][1,2,4]triazin-2-yl)amino)cyclohexyl)acetamide]
6.7 nM	COc1nc(N[C@H]2CC[C@@](C)(O)CC2)nn2ccc(-c3ccc4nccn4c3)c12 [Compound 55, cis-4-((5-(Imidazo[1,2-a]pyridin-6-yl)-4-methoxypyrrolo[2,1-f][1,2,4]triazin-2-yl)amino)-1-methylcyclohexan-1-ol]

SMILES	IC50
COc1nc(N[C@H]2C[C@@H](OCCO)C2)nn2ccc(-c3ccn4nccc4c3)c12 [Compound 6, 2-(cis-3-((4-Methoxy-5-(pyrazolo[1,5-a]pyridin-5-yl)pyrrolo[2,1-f][1,2,4]triazin-2-yl)amino)cyclobutoxy)ethan-1-ol]	1.1 nM
